How the values were obtained:
[1] = system: bone marrow neutrophils (BMNs); experiment: Differentiation of BMNs into HLA-DR+CD14+ hybrid neutrophils (flow cytometry); assay type: cell-based, human; conditions: for induction of the CD14+HLA-DR+ hybrid phenotype in BMNs: single factor at the low concentrations found in the TCMs
Description: Generation of BM-Derived Hybrid and Canonical Neutrophils. To differentiate BMNs into cells that resemble canonical TANs, purified long-lived BMNs were cultured for 7 days with a TCM (50% v/v) collected from a patient's tumor digest where a large number of hybrid TANs were previously unable to be identified by flow cytometry. […] Alternatively, hybrid-neutrophils were differentiated from BMNs with low doses IFN-γ (50 pg/ml) and GM-CSF (50 pg/ml) for 7 days. If it was observed that the formation of hybrid BMNs was less than 80% the HLA-DR+CD14+ hybrid cells from TCM treated BMNs were enriched by positive selection using magnetic beads coated with anti-HLA-DR antibodies or by flow cytometric cell sorting. The proliferation of BMNs during the differentiation was assessed by flow cytometry using BrdU Flow Kit (BD Pharmingen). BMNs were exposed to bromo-deoxyuridine for 6 hours.
To test the effect of hypoxia on hybrid neutrophil formation, BMNs were cultured for 6 days under normoxic and hypoxic culture conditions maintained in a 37° C. incubator containing 5% CO2, and either atmospheric 21% O2 or 5% O2 condition (Hypoxia Incubator Chamber, Stemcell Techology). BMNs were also cultured in the presence of hybrid-inducing TCM and cobalt chloride (25 μM) (MP Biomedicals LLC), an agent that induces the hypoxia-inducible factor-1α, the main transcriptional factor activated in hypoxic conditions.
Flow Cytometry. Flow cytometric analysis was performed according to standard protocols. Negative gating was based on a fluorescence minus one (FMO) strategy. To exclude dead cells from analysis, cells were stained with the Fixable Viability Dye eFluor® 450 (ebioscience), LIVE/DEAD® fixable dead cell stains (Molecular probes, Life Technologies), or Zombie Yellow™ Fixable Viability dye (Biolegend). To distinguish early-stage apoptotic and late-stage apoptotic/necrotic cells, cells were first stained with Fixable Viability Dye eFluor® 660 (eBioscience). Then cells were washed with the AnnexinV-Binding Buffer and stained with anti-AnnexinV Abs (FITC) in the AnnexinV-Binding Buffer for 10 min at RT. Cells were washed and analyzed by flow cytometry.
(§1) For phenotypic and functional analysis PBNs, BMNs, and TANs were gated on live CD11b^+CD15^hiCD66b^+ cells. […] All data were acquired using the BD FACSCalibur or BD LSRFortessa™ (BD Bioscience) flow cytometers and analyzed using FlowJo software (TreeStar Inc.).

human Ikaros proteins = conditions: literature (Kronke et al., 2014); cited from earlier work
PD-L1 = PD-L1 expression on HLA-DR+ BMNs (flow cytometry); assay type: cell-based, human; conditions: IFN-γ at more than 1 ng/ml, with GM-CSF 50 pg/ml
Description: FIGS. 16A-16F are a series of graphs showing tumor-derived IFN-γ and GM-SCF synergistically differentiate immature neutrophils into a subset of APC-like hybrid neutrophils. […] FIGS. 16E-16F show levels of IFN-γ (FIG. 16E) and GM-CSF (FIG. 16F) in supernatants collected from the cell culture of small-sized tumor digests where APC-like hybrid TANs were or were not previously detected (set-off was >10% among all TANs) (line represents mean±SEM, n=10, Mann-Whitney test for unpaired data). Lower panels represent the correlation between the absolute levels of IFN-γ and GM-CSF in the TCM, with the frequency of hybrid neutrophils in each tumor shown in the upper graphs. Non-parametric Spearman test was used to determine the degree of correlation. Representative dot plots from one of five experiments are shown in (FIG. 16A-16D).
as §1

For `[Cl][Co][Cl]` [cobalt chloride], the “development of hybrid CD14+HLA-DR+ neutrophils” value ([1]; with hybrid-inducing TCM, cobalt chloride 25 μM (hypoxia-simulating), 6 days) was “profoundly inhibited”.

In the case of `Nc1cccc2c1CN(C1CCC(=O)NC1=O)C2=O` (stereo not drawn) [lenalidomide], the “development of HLA-DR+CD14+ hybrid neutrophils” value ([1]; lenalidomide added to BM neutrophils treated with hybrid-inducing TCM (30% v/v), 6 days) is given as “dramatically facilitated” and the “effect on Ikaros proteins” value (human Ikaros proteins) is given as “causes proteasomal degradation of the human Ikaros proteins”.

For “GM-CSF: Human recombinant GM-CSF purchased from PeproTech”, the “induction of the CD14+HLA-DR+ hybrid phenotype in BMNs” value [1] was “able to induce the phenotype, although in a relatively low percentage of cells”.

With “IFN-γ: Human recombinant IFN-γ purchased from PeproTech” the “induction of the CD14+HLA-DR+ hybrid phenotype in BMNs” value [1] was “able to induce the phenotype, although in a relatively low percentage of cells” and the “expression of PD-L1 on the HLA-DR+ BMNs” value (PD-L1) was “gradually induced the expression of PD-L1”.
